Data set [1] has as its system Salmonella typhimurium TA98. Briefly: AMES test, strain TA98. The conditions noted are these: TA98, with (+S9) and without (-S9) metabolic activation, 62.5-375 μg/plate. The format is cell-based. The source says:
For the AMES test, the TA 100 and TA 98 strains of Salmonella typhimurium were used. The strain TA 100, which detects mutagens causing base pair replacement in DNA, contains a mutation in the hisG gene (hisG46), which codes for the first histidine biosynthesis enzyme, with the CG pair as the preferred point for reversion. The strain TA 98 has a mutation in the hisD gene to reverse eight repetitive GC residues and detects mutagenic compounds causing the DNA reading frame to shift. According to the methodology of direct incorporation in plates, developed by Maron and Ames (1983), different concentrations of CBD-SINT (375, 250, 125 and 62.5 μg/plate) were mixed with 0.1 mL of the bacteria culture and 2 mL of surface agar (top agar), supplemented with traces of histidine and biotin. For the tests with metabolic activation, 0.5 mL homogenized microsomal fraction S9 of rat liver (post-mitochondrial fraction, supplemented with a cofactor, prepared from the liver of rodents treated with an enzymatic inducing agent, arochloror 1254) (MOLTOX—Molecular Toxicology, USA) were added. As a negative control, double-distilled water (vehicle) was used. As a positive control for TA98, 4-nirophenylenediamine (NPD) dissolved in DMSO was used at a concentration of 10 μg/plate. […] After this period, the number of reversing colonies per plate was counted. […]

In data set [2] the test system is rats with MPTP microinfusion into the substantia nigra. Put plainly: Morris water maze (cued test/memory version), MPTP model. It is filed as in vivo. The settings on record: 36 and 120 mg/kg orally, day 1 to day 10 after MPTP. The protocol:
For the experiments with MPTP (neuroprotection), the animals were divided into the following experimental groups: • MPTP+placebo • MPTP+CBD-SINT 12 mg/kg • MPTP+CBD-SINT 36 mg/kg • MPTP+CBD-SINT 120 mg/kg • Sham+placebo • Naive
CBD-SINT and placebo were administered orally (gavage) for 18 days prior to the administration of the neurotoxin by stereotactic surgery, and for another 10 days after surgery. After the administration of the neurotoxin, the behavioral (locomotor activity) and biochemical (brain dopamine dosage) parameters were evaluated after 24 hours and after 10 days. The memory tests (Morris water maze) were performed daily from day 1 to day 10 after the administration of the neurotoxin (FIG. 13).
The rats were submitted to stereotactic surgery (stereotactic—David Kopf, model 957L) and received bilateral microinfusion of MPTP or 6-OHDA (different groups of rats) directly into the substantia nigra. For surgery, the following stereotaxic coordinates were used: anteroposterior: 5.0 mm from the bregma; mediolateral: ±2.1 mm from the midline and dorsoventral: −7.7 mm from the cranial vault (Paxinos and Watson, 1986). Then, 100 μg MPTP (diluted in 1 μL saline, with a flow of 0.33 μL/min) or 8 μg 6-OHDA (diluted in 2 μL saline with 0.2 μg/μL ascorbic acid, with a flow rate of 0.33 μL/min) were injected. […]

The subject of the next data set is male rabbits. Put plainly: Blood pressure measurement and heart rate. It is filed as in vivo, New Zealand rabbits. The conditions noted are these: for heart rate: anesthetized male rabbits. The procedure: Male New Zealand rabbits (n=6 per group) were used for pharmacological safety tests. All tests were performed orally (route recommended for humans) and the investigated parameters were determined after a single administration of CBD-SINT. CBD-SINT doses were determined by allometric extrapolation from the average dose used in human patients (25 mg/kg).
The dose of 51 mg/kg was used as the intermediate dose, stipulating a higher and a lower dose. Three dose ranges were used according to the Guide for Conducting Non-Clinical Toxicology and Pharmacological Safety Studies Necessary for Drug Development (ANVISA, 2013; Version 1.2). Thus, the doses used were 17, 51 and 170 mg/kg of CBD-SINT.
b) Blood pressure measurement, after a 6-h fasting, three doses of CBD-SINT (17, 51 and 170 mg/kg) were administered to different groups of male rabbits by gavage. Placebo was administered to the control group (1 mL/kg). 40 minutes after treatments all rabbits were anesthetized with 10 mg/kg diazepam intramuscularly combined with 115 mg/kg ketamine. Then, the animals received a bolus injection of heparin (50 IU) subcutaneously. Tracheostomy was performed to allow animals to breathe spontaneously. Then, the left carotid artery was isolated, cannulated, and connected to a pressure transducer coupled to a PowerLab recording system (Chart 5.0, ADI Instruments, Castle Hill, Australia). After 15 minutes for hemodynamic stabilization, systolic blood pressure (SBP), diastolic blood pressure (DBP) and mean arterial pressure (MAP) were recorded for another 20 min.

For `C=C(C)[C@@H]1CCC(C)=C[C@H]1c1c(O)cc(CCCCC)cc1O` [CBD-SINT, Cannabidiol], in data set [1], the “frequency of reversible mutants with the increase in concentration” value was “no increase”. Besides, in data set [1], the “mutagenicity ratios (MR)” value is “less than 2”. In addition, the “latency time to find the platform (memory deficit)” value in data set [2] is “prevented this deficit”. The heart rate in the data set on male rabbits (17 mg/kg oral) is reported as 285±18 bpm; in the data set on male rabbits (51 mg/kg oral), 279±20 bpm; in the data set on male rabbits (170 mg/kg oral) it was 275±17 bpm. For the same molecule, in the data set with male rabbits (anesthetized male rabbits, 17, 51 or 170 mg/kg oral), the “blood pressure levels (systolic, diastolic, mean arterial) compared to the control group” value was “did not significantly change”.

Source of the values: patent US11389423B2, “Pharmaceutical composition, excipient for the composition and use of the composition” (priority 2018, dated 2022).
